Test results from US10654867B2 (Genentech, Inc., priority 2016, dated 2020).

What follows are compounds tested against T1, estrogen receptor alpha (ESR1) in MCF7 breast cancer cells (Homo sapiens, UniProt P03372) (assay: Breast Cancer Cell ERa High Content Fluorescence Imaging Degradation Assay (ER-alpha MCF7 HCS)). Settings: 4 hours, plateau of the maximal effect, DMSO and fulvestrant define 0% and 100% change in ESR1, Table 1a.
T1 sequence (P03372 1-595): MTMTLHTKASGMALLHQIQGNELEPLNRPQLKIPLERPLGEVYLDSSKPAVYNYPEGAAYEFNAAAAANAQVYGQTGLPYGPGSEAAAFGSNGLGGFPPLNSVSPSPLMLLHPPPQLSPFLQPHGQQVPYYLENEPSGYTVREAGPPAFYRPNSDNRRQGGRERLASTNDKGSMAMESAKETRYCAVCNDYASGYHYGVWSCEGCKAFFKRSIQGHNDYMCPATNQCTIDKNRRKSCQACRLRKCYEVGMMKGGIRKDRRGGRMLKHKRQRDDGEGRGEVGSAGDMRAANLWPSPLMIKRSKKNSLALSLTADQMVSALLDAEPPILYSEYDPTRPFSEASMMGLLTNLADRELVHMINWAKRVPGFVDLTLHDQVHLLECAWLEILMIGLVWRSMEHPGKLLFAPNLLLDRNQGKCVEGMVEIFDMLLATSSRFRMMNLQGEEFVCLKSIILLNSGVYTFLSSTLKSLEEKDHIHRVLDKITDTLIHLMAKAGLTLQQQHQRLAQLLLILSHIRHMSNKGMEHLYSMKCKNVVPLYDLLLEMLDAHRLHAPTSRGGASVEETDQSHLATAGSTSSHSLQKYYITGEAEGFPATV
Format: cell-based
Design: endogenous in cells; host or cells: MCF7 breast cancer cells
Description: All of the exemplary Formula I, II, and III compounds in Tables 1a and 1b were made and characterized by LCMS [M+H]^+ (liquid chromatography mass spectroscopy) with detection of parent ion. All of the exemplary Formula I, II, and III compounds in Tables 1a and 1b were tested for binding to ERa (Estrogen Receptor alpha) and biological activity according to the assays, protocols, and procedures of Examples 901-907. ER-alpha MCF7 HCS Sinf (%) values in Tables 1a and 1b were measured by the Breast Cancer Cell ERa High Content Fluorescence Imaging Degradation Assay of Example 901. ER-alpha MCF7 HCS EC50 (μM) values in Tables 1a and 1b were measured by the in vitro cell proliferation assays described in Examples 902 and 903. The rat uterine wet weight assays of Examples 906 and 907 allow rapid determination of compound antagonist activity in an ER responsive tissue (immature rat uterus) while competing against the native ER ligand estradiol, i.e. antagonist mode (Ashby, J.; et al (1997) Regulatory toxicology and pharmacology: RTP, 25 (3):226-31). Exemplary Formula I, II, and III compounds in Tables 1a and 1b have the following structures, corresponding names (ChemBioDraw, Version 12.0.2, CambridgeSoft Corp., Cambridge Mass.), and biological activity. Where more than one name is associated with a Formula I, II, and III compound or intermediate, the chemical structure shall define the compound.
MCF7 breast cancer cells were seeded on day 1 at a density of 10,000 cells per well in 384 well poly-lysine coated tissue culture plate (Greiner # T-3101-4), in 50 μL/well RPMI (phenol red free), 10% FBS (Charcoal stripped), containing L-glutamine. On day 2, compounds were prepared at 2 compound source concentrations: 100 μM and 1 μM (ultimately to give 2 overlapping titration curves), in a Labcyte low dead volume plate, 10 μL/well, and 10 μL of DMSO in designated wells for backfill, and 5 μM Fulvestrant (control compound) in designated wells. Compounds and controls were dispensed using a Labcyte Echo acoustic dispenser to dispense compounds with a predefined serial dilution (1.8×, 10 point, in duplicate) and appropriate backfill and control compounds (final total volume transferred was 417.5 nL and compound dispense volume ranges from 2.5 nL to 417.5 nL; 0.84% DMSO (v/v) final), ultimately producing a concentration range from 0.05 nM to 835 nM. Cell plates were incubated at 37° C., for 4 hours. Fixation and permeabilization were carried out using a Biotek EL406 plate washer and dispenser as follows. Cells were fixed by addition of 15 μL of 16% paraformaldehyde (Electron Microscopy Sciences #15710-S) directly to the 50 μL cell culture medium in each well using the peristaltic pump 5 μL cassette on a Biotek EL406 (final concentration of formaldehyde was 3.7% w/v). Samples were incubated 30 minutes. Well contents was aspirated and 50 μL/well of Phosphate Buffered Saline (PBS) containing 0.5% w/v bovine serum albumen, 0.5% v/v Triton X-100 (Antibody Dilution Buffer) was added to each well. Samples were incubated for 30 minutes. Well contents were aspirated and washed 3 times with 100 μL/well of PBS. Immunofluorescence staining of estrogen receptor alpha (ESR1) was carried out using a Biotek EL406 plate washer and dispenser as follows. The well supernatant was aspirated from the wells and 25 μL/well of anti-ESR1 mAb (F10) (Santa Cruz sc-8002) diluted 1:1000 in Antibody Dilution Buffer was dispensed. Samples were incubated for 2 hours at room temperature. Samples were washed 4 times with 100 μL/well of PBS. 25 uL (microliters)/well of secondary antibody solution (Alexafluor 488 conjugate anti-mouse IgG (LifeTechnologies # A21202) diluted 1:1000 and Hoechst 33342 1 μg/ml diluted in Antibody Dilution Buffer) were dispensed into each well. Samples were incubated for 2 hours at room temperature. Samples were washed 3 times with 100 μL/well of PBS using a Biotek EL406. Quantitative fluorescence imaging of ESR1 was carried out using a Cellomics Arrayscan V (Thermo). […]

Row | Compound | ER-alpha MCF7HCS Sinf [%]
1 | C[C@H]1Cc2sc3ccccc3c2[C@H](c2ccc(OCCN3CC(CF)C3)cc2)N1CC(C)(C)F [Example 129, (1S,3S)-2-(2-Fluoro-2-methylpropyl)-1-(4-(2-(3-(fluoromethyl)azetidin-1-yl)ethoxy)phenyl)-3-methyl-1,2,3,4-tetrahydrobenzo[4,5]thieno[3,2-c]pyridine] | −43.8
2 | C[C@H]1Cc2sc3ccccc3c2[C@@H](c2ccc(OCCN3CC(CF)C3)cc2)N1CC(C)(C)F [Example 131, (1R,3S)-2-(2-fluoro-2-methylpropyl)-1-(4-(2-(3-(fluoromethyl)azetidin-1-yl)ethoxy)phenyl)-3-methyl-1,2,3,4-tetrahydrobenzo[4,5]thieno[3,2-c]pyridine] | −99
3 | C[C@@H]1Cc2c([nH]c3cccnc23)[C@@H](c2c(F)cc(OC3CN(CCCF)C3)cc2F)N1CC(C)(C)F [Example 133, (6R,8R)-6-{2,6-Difluoro-4-[2-(3-fluoromethyl-azetidin-1-yl)-ethoxy]-phenyl}-7-(2-fluoro-2-methyl-propyl)-8-methyl-6,7,8,9-tetrahydro-5H-dipyrido[3,2-b;4′,3′-d]pyrrole] | −94.5
4 | C[C@@H]1Cc2c([nH]c3ccccc23)[C@]2(CCc3nc(OCCN4CC(CF)C4)ccc32)N1CC(F)(F)F [Example 134, (3′R,5R)-2-(2-(3-(fluoromethyl)azetidin-1-yl)ethoxy)-3′-methyl-2′-(2,2,2-trifluoroethyl)-2′,3′,4′,6,7,9′-hexahydrospiro [cyclopenta[b]pyridine-5,1′-pyrido [3,4-b]indole]] | −96.5
5 | C[C@@H]1Cc2c([nH]c3ccccc23)[C@@](C)(c2ccc(OCCN3CC(CF)C3)cc2)N1CC(C)(C)F [Example 135, (1R,3R)-2-(2-Fluoro-2-methylpropyl)-1-(4-(2-(3-(fluoromethyl)azetidin-1-yl)ethoxy)phenyl)-1,3-dimethyl-2,3,4,9-tetrahydro-1H-pyrido[3,4-b]indole] | −95
6 | C[C@@H]1Cc2[nH]c3ccccc3c2[C@@H](c2c(F)cc(OCCN3CC(CF)C3)cc2F)N1CC(C)(C)F [Example 137, (1S,3R)-1-(2,6-difluoro-4-(2-(3-(fluoromethyl)azetidin-1-yl)ethoxy)phenyl)-2-(2-fluoro-2-methylpropyl)-3-methyl-2,3,4,5-tetrahydro-1H-pyrido[4,3-b]indole] | −94.2
7 | CC(C)(F)CN1[C@H](c2c(F)cc(OCCN3CC(CF)C3)cc2F)c2[nH]c3ccccc3c2[C@H]2CC[C@H]21 [Example 138, (2aR,4R,9cR)-4-(2,6-difluoro-4-(2-(3-(fluoromethyl)azetidin-1-yl)ethoxy)phenyl)-3-(2-fluoro-2-methylpropyl)-2,2a,3,4,5,9c-hexahydro-1H-cyclobuta[5,6]pyrido[3,4-b]indole] | −68

The next lines start with the values.

Row | ER-alpha MCF7HCS Sinf [%] | Compound
8 | −15 | C[C@@H]1Cc2c([nH]c3ccccc23)[C@]2(Cc3ccc(OC4CN(CCCF)C4)cc3C2)N1CC(F)(F)F [Example 140]
9 | −103 | C[C@@H]1Cn2c(cc3ccccc32)[C@@H](c2c(F)cc(OC3CN(CCCF)C3)cc2F)N1CC(F)(F)F [Example 141, (1R,3R)-1-(2,6-difluoro-4-((1-(3-fluoropropyl)azetidin-3-yl)oxy)phenyl)-3-methyl-2-(2,2,2-trifluoroethyl)-1,2,3,4-tetrahydropyrazino[1,2-a]indole]
10 | −96 | CC1(C)CN(CC(F)(F)CO)[C@H](c2c(F)cc(NC3CN(CCCF)C3)cc2F)c2[nH]c3ccccc3c21 [Example 142, (R)-3-(1-(2,6-difluoro-4-(1-(3-fluoropropyl)azetidin-3-ylamino)phenyl)-4,4-dimethyl-3,4-dihydro-1H-pyrido[3,4-b]indol-2(9H)-yl)-2,2-difluoropropan-1-ol]
11 | −87 | C[C@@H]1Cn2c(cc3ccccc32)[C@H](c2c(F)cc(NC3CN(CCCF)C3)cc2F)N1CC(F)(F)F [Example 145, N-(3,5-Difluoro-4-((1S,3R)-3-methyl-2-(2,2,2-trifluoroethyl)-1,2,3,4-tetrahydropyrazino[1,2-a]indol-1-yl)phenyl)-1-(3-fluoropropyl)azetidin-3-amine]
